Results: US5310728A, “Method for treating corneal endothelial wounds” (Chiron Ophthalmics, Inc., priority 1992, dated 1994)
Entries after “also recorded” stand apart in the source; their conditions may differ.

Assays:
[1] = tested on: bovine corneal endothelial cells (BCEC); test: Stimulation of BCEC DNA synthesis by recombinant peptide growth factors (tritiated thymidine); type: cell-based; details: for Relative potency as mitogen for BCEC (in words): absence of other added serum components, ten peptide growth factors compared, EGF first, TGF-α second; for Stimulation of DNA synthesis of BCEC (in words): serum-free CDM, FIG. 5
Description: Pure cultures of BCEC were established from freshly obtained cow eyes by trypsin treatment of the endothelial surface. Early passage cultures were trypsinized and seeded into 24 well plates as described above. After the cells had been synchronized by serum deprivation, BCEC were cultured in CDM containing tritiated thymidine and solutions of peptide growth factors produced by recombinant DNA technology. Radioactivity incorporated into DNA was measured as described previously.

[2] = tested on: endothelial cell division; test: Intraocular injection of TGF-α solution in a patient with endothelium failure; type: in vivo; details: 100 μg/ml in buffered saline, 0.1 ml per injection into the anterior chamber, single or series
Description: A patient is diagnosed as requiring a corneal implant due to endothelium failure as a result of such conditions as Fuch's dystrophy or a marginal endothelial count either prior to or after cataract surgery. As an alternative to transplant surgery, the patient undergoes a single or series of intraocular injections of a solution of TGF-α in buffered saline. The concentration of the TFG-α is 100 μg/ml and 0.1 ml of solution are injected into the anterior chamber per injection.

[3] = tested on: fibroblasts; details: in vitro; Haigler & Carpenter 1980; cited from earlier work

## transforming growth factor alpha [TGF-α]
[1]
  Relative potency as mitogen for BCEC (in words): very potent mitogen for BCEC; also recorded: potent mitogen
[2]
  Effect of injections on endothelial cell division: enhance endothelial cell division

## platelet-derived growth factor
[1]
  Stimulation of DNA synthesis of BCEC (in words): failed to stimulate DNA synthesis

## nerve growth factor
[1]
  Stimulation of DNA synthesis of BCEC (in words): failed to stimulate DNA synthesis

## epidermal growth factor [EGF]
[1]
  Relative potency as mitogen for BCEC (in words): second only to EGF in potency
[3]
  Minimum exposure time to induce fibroblasts to divide: ≥ 6 h

## multiplication stimulating activity
[1]
  Stimulation of DNA synthesis of BCEC (in words): failed to stimulate DNA synthesis
